Measurements from patent publication US11730720B2, “ALK5 inhibitors” (THERAVANCE BIOPHARMA R&D IP, LLC, priority 2018, dated 2023).

What was measured:
[1] = test system: TGF-β-stimulated SMAD3 phosphorylation in BEAS-2B cells; assay: Cellular ALK5 potency assay, inhibition of TGF-β stimulated pSMAD3 formation in BEAS-2B cells; assay type: cell-based; conditions: Homo sapiens, inhibition of TGF-β (10 ng/mL) stimulated pSMAD3 formation, 1 hour compound incubation, read-out: BEAS2B pIC50 (converted)
In short: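 Phospho-SMAD3 was quantified by AlphaLISA in lysates of human lung epithelial BEAS-2B cells. Compound was added 1 h (37 °C, HEPES/BSA-supplemented HBSS) before a 30 min challenge with 10 ng/mL TGF-β. Values are pIC50 relative to stimulated cells without compound.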

[2] = target: T1, recombinant human ALK5 (TGF-βR1) protein (Homo sapiens, UniProt P36897); assay: Biochemical ALK5 (TGF-βR1) assay to measure pKi (LANCE Ultra ULight kinase assay); conditions: apparent pKi, converted from pIC50 using the Cheng-Prusoff equation
T1 construct: purchased Life Technologies PR9075A
T1 sequence (P36897 34-503): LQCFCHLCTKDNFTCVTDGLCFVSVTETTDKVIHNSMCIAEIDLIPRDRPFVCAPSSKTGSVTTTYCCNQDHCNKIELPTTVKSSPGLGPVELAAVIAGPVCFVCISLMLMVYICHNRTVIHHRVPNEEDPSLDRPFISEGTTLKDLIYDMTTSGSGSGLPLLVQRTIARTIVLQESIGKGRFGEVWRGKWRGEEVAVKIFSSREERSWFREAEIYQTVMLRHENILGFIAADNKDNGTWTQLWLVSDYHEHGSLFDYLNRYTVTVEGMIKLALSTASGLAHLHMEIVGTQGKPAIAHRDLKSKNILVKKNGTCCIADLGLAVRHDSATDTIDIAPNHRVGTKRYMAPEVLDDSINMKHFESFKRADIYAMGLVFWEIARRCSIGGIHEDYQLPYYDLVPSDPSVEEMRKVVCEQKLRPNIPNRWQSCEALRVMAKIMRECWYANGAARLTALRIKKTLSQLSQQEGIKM
In short: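 TR-FRET kinase format: compound dose range 10 μM–25 pM equilibrated 60 min with human ALK5 and ULight-labelled topoisomerase 2α peptide in HEPES/MgCl2 buffer pH 7.5 with DTT. Reaction started with ATP (125 μM stock, 5× final), 60 min at 37° C, stopped with EDTA/Eu-anti-phospho antibody; pKi derived from pIC50 via Cheng-Prusoff.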

SMILES	Ki [2] [nM]	IC50 [1] [nM]
Fc1ccc(Cl)cc1-c1[nH]cnc1-c1ccc2ncc(-c3cn4c(n3)CNCC4)cc2c1 [Compound 17-14, 6-[5-(5-chloro-2-fluoro-phenyl)-1H-imidazol-4-yl]-3-(5,6,7,8-tetrahydroimidazo[1,2-a]pyrazin-2-yl)quinoline]	0.0398 to 0.316	25.1 to 158
OCCn1cc(-c2cnc3ccc(-c4c[nH]nc4-c4ccc(F)c(F)c4)nc3c2)cn1 [Compound 8-21, 2-(4-(6-(3-(3,4-difluorophenyl)-1H-pyrazol-4-yl)-1,5-naphthyridin-3-yl)-1H-pyrazol-1-yl)ethan-1-ol]	0.0398 to 0.316	≤ 20
Fc1cc(F)c(-c2n[nH]cc2-c2ccc3ncc(-c4cn[nH]c4)cc3n2)cc1Cl [Compound 6-6, 2-[3-(5-chloro-2,4-difluoro-phenyl)-1H-pyrazol-4-yl]-7-(1H-pyrazol-4-yl)-1,5-naphthyridine]	0.0398 to 0.316	≤ 20
CC(C)N1CCN(c2ccc(Nc3cnc4ccc(-c5c[nH]nc5-c5cc(Cl)ccc5F)nc4c3)nc2)CC1 [Compound 1-30, 6-(3-(5-chloro-2-fluorophenyl)-1H-pyrazol-4-yl)-N-(5-(4-isopropylpiperazin-1-yl)pyridin-2-yl)-1,5-naphthyridin-3-amine]	0.0398 to 0.316	25.1 to 158
CN(C)C1CCN(c2cnc3ccc(-c4c(-c5cc(Cl)ccc5F)nc5ccccn45)nc3c2)C1 (racemic) [Compound 3-4, rac-(3S)-1-[6-[2-(5-chloro-2-fluoro-phenyl)imidazo[1,2-a]pyridin-3-yl]-1,5-naphthyridin-3-yl]-N,N-dimethyl-pyrrolidin-3-amine]	0.0398 to 0.316	200 to 1260

The next lines start with results.

Ki [2] [nM]	SMILES	IC50 [1] [nM]
0.0398 to 0.316	CC1(C)CCCN1CCNc1cnc2ccc(-c3c[nH]nc3-c3cc(Cl)c(F)cc3F)nc2c1 [Compound 6-5, 6-[3-(5-chloro-2,4-difluoro-phenyl)-1H-pyrazol-4-yl]-N-[2-(2,2-dimethylpyrrolidin-1-yl)ethyl]-1,5-naphthyridin-3-amine]	25.1 to 158
0.398 to 3.16	COCC(C)(CNc1cnc2ccc(-c3c[nH]nc3-c3cc(Cl)ccc3F)nc2c1)N1CCN(C(C)C)CC1 (stereo not drawn) [Compound 1-6, 6-[3-(5-chloro-2-fluoro-phenyl)-1H-pyrazol-4-yl]-N-[2-(4-isopropylpiperazin-1-yl)-3-methoxy-2-methyl-propyl]-1,5-naphthyridin-3-amine]	200 to 1260
0.398 to 3.16	Clc1cccc(-c2[nH]cnc2-c2ccc3ncc(NCCN4CCNCC4)cc3c2)c1 [Compound 24-4, 6-[5-(3-chlorophenyl)-1H-imidazol-4-yl]-N-(2-piperazin-1-ylethyl)quinolin-3-amine]	25.1 to 158
≤ 0.0316	CN1CC=C(c2nc3n(n2)CCN(c2cnc4ccc(-c5nc[nH]c5-c5cc(Cl)ccc5F)nc4c2)C3)C1 [Compound 2-15, 2-(5-(5-chloro-2-fluorophenyl)-1H-imidazol-4-yl)-7-(2-(1-methyl-2,5-dihydro-1H-pyrrol-3-yl)-5,6-dihydro-[1,2,4]triazolo[1,5-a]pyrazin-7(8H)-yl)-1,5-naphthyridine]	25.1 to 158
0.398 to 3.16	CC(C)N1CCN(CCNc2cnc3ccc(-c4nc[nH]c4-c4cccc(Cl)c4)cc3c2)CC1 [Compound 24-2, 6-(5-(3-chlorophenyl)-1H-imidazol-4-yl)-N-(2-(4-isopropylpiperazin-1-yl)ethyl)quinolin-3-amine]	25.1 to 158
0.398 to 3.16	COC(=O)[C@H]1CN(c2cnc3ccc(-c4c[nH]nc4-c4cc(Cl)ccc4F)nc3c2)CCN1C [Compound 1-65, methyl (2R)-4-[6-[3-(5-chloro-2-fluoro-phenyl)-1H-pyrazol-4-yl]-1,5-naphthyridin-3-yl]-1-methyl-piperazine-2-carboxylate]	25.1 to 158
3.98 to 31.6	COCc1cccc(-c2[nH]cnc2-c2ccc3ncc(NCCN4CCNCC4)cc3n2)c1 [Compound 15-1, 6-(5-(3-(methoxymethyl)phenyl)-1H-imidazol-4-yl)-N-(2-(piperazin-1-yl)ethyl)-1,5-naphthyridin-3-amine]	200 to 1260
